Data on four compounds can be found in paper PMC13252604, “First Generation Proteolysis Targeting Chimeras (PROTACs) for the Treatment of Progeria” (Advanced Science, 2026).

Molecules are shown by their SMILES.

The target in one test is T1, progerin (Mus musculus, UniProt P48678, DEL608-657).
T1 construct: endogenous in cells; host or cells: immortalized (SV40-LT) fibroblasts from Lmna G609G/G609G mice
T1 sequence (P48678 with tags, fused parts or gaps DEL608-657 limits assumed): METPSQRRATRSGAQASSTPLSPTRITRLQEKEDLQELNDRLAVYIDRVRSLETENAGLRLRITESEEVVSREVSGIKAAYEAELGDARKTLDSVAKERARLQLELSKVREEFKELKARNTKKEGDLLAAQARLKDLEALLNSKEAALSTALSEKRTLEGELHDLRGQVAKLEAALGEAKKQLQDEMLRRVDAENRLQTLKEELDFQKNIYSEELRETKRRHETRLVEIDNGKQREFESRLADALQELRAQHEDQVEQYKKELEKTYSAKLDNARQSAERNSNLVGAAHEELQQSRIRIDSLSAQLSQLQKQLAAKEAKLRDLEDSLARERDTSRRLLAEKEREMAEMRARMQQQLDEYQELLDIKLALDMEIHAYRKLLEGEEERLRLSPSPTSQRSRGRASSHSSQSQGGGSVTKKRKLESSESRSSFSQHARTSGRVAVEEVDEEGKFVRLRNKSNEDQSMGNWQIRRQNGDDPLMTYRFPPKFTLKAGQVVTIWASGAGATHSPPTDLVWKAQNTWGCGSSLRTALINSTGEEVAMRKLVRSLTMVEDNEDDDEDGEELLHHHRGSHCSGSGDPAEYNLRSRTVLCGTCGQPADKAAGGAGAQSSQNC
Kind of test: Progerin degradation, immunoblot in Lmna^G609G/G609G fibroblasts. To be noted: Lmna^G609G/G609G fibroblasts, 5 µM, 8 h, vs vehicle. It is filed as cell-based. On the procedure: The ability of compounds 2‐6 to degrade progerin was evaluated in Lmna^G609G/G609G fibroblasts, derived from the progeria mouse model that most closely replicates the human disease phenotype. Lamin A/C antibody was used for immunodetection due to its prevalent use in this context, enabling simultaneous visualization of both lamins and progerin [15].
FIGURE 2 (A) Representative cropped immunoblots and quantification of progerin from Lmna^G609G/G609G fibroblasts. Cells were incubated with vehicle or indicated compound at 5 µM for 8 h. MW, molecular weight (in kDa) markers. (B, C) Concentration and time‐dependency of the reduction of progerin levels induced by compounds 2 and 9. Graphs show quantification of progerin in Lmna^G609G/G609G fibroblasts (immunoblots are shown in Supporting Figure S1). Cells were incubated with vehicle or the indicated compound concentration for 8 h. For time‐course experiments, cells were incubated with vehicle or indicated compound at 5 µM. Bar graphs show mean±sem of 3 independent experiments performed in duplicate. Data were analysed using one‐way ANOVA followed by Dunnett's post–hoc test comparing all groups to the vehicle; ^*, p < 0.05. […]
4. Cell lines and culture.
Progeroid mouse fibroblasts, kindly donated by Prof. Carlos López Otín (Oviedo University, Spain), were isolated from LmnaG609G/G609G mice[19] and wild-type (WT) littermates and immortalized by retroviral transduction with SV40 large T antigen (SV40-LT). Since LmnaG609G/G609G mouse represents the most suitable and widely accepted model of HGPS, as it most faithfully recapitulates the molecular and phenotypic features of the human disease, its use in this study is fully justified. Moreover, although this cell […]
cells have been extensively validated by additional independent studies.[15, 65, 66] […]
experiments, nor does it affect the conclusions presented in our study.
Mouse fibroblasts were grown in Dulbecco’s modified eagle medium (DMEM, Gibco) supplemented with 10% heat inactivated fetal bovine serum (FBS, Gibco), 50 U/mL penicillin, and 50 μg/mL streptomycin (Invitrogen). Human progeroid HGADFN167 LmnaG608G/G608G (G608G) or or healthy HGADFN168 Lmna+/+ (WT) fibroblasts, were obtained from The Progeria Research Foundation (RRIDs CVCL_1Y92 and CVCL_1Y93, respectively) and cultured in DMEM with 20% heat inactivated FBS, 50 U/mL penicillin and 50 μg/mL streptomycin. All cells were incubated in a humidified atmosphere at 37 °C in the presence of 5% CO2 and were confirmed to be free of mycoplasma contamination. […]
Measurements were performed in triplicate, and each experiment was repeated at least three times. The viability values were calculated from the percentage of viable cells with respect to 100% viability of the vehicle-treated cells.
6. Immunoblot and immunocytofluorescence analysis.
Mouse or human progeroid cells were seeded at density of […] or 5 x 10^4 cells respectively on 12-well plates and incubated for 24 h in DMEM medium. For proteosome-dependency assays, cells were pre-treated either with the proteasome inhibitor (S)-MG132 (20 µM) or with the NEDD8-activating enzyme inhibitor MLN4924 (5 µM) for 2 h prior to […]
compound exposure. Then, cells were incubated with compound of interest or DMSO for the appropriate time and lysed with cold laemmli buffer (50 mM Tris-HCl pH 7.4, 150 mM NaCl, 1% Igepal) with a mixture of protease and phosphatase inhibitors (1 mM PMSF, 10 mM NaF, 0.3 mg/mL CalyculinA, 1 mM sodium orthovanadate, 10 mM β-glycerol-phosphate; all from Sigma-Aldrich and complete protease inhibitor cocktail, from Roche). Proteins were denatured at 95 ᵒC for 5 min and the lysates were immediately used or stored at -20 ᵒC until use. Samples were analysed by electrophoresis in polyacrylamide gels (All Kd SDS-PAGE, BioRad) and the proteins transferred to nitrocellulose membranes (GE Healthcare, Amersham). After 1 h of incubation in blocking buffer [20 mM Tris pH 7.6, 150 mM NaCl and 0.1% Tween-20 (TBS-T) with […]
(A western blot detects proteins with antibodies after separation by electrophoresis.)

The test system of test [1] is Hutchinson‐Gilford Progeria Syndrome. To be noted: progeria patients; cited from earlier work.

For `CC1(C)Oc2cc3oc(=O)ccc3cc2C[C@@H]1OC(=O)CCCCCOc1ccc(C2CCC(=O)NC2=O)cc1` (some centres unmarked) [compound 10], at progerin, the “progerin levels (immunoblot quantification)” value (shortened to “progerin levels”) is reported as “neither the glutarimide derivative 10 nor the VHL‐ligand‐containing compound 11 led to a significant reduction in progerin levels”.

On to `Cc1ncsc1-c1ccc(CNC(=O)[C@@H]2C[C@@H](O)CN2C(=O)[C@@H](NC(=O)CCCCC(=O)O[C@H]2Cc3cc4ccc(=O)oc4cc3OC2(C)C)C(C)(C)C)cc1` [compound 11], for which the “progerin levels” value at progerin is recorded as “neither the glutarimide derivative 10 nor the VHL‐ligand‐containing compound 11 led to a significant reduction in progerin levels”.

Take `CN1C(=O)CCC(N2C(=O)c3cccc(NCCCCCC(=O)O[C@H]4Cc5cc6ccc(=O)oc6cc5OC4(C)C)c3C2=O)C1=O` (some centres unmarked) [compound 13]: on progerin, the “progerin levels” value is recorded as “ineffective in lowering progerin levels”.

On to `NC(=O)N1CCC(CC(=O)N2CCC([C@H]3c4ncc(Br)cc4CCc4cc(Cl)cc(Br)c43)CC2)CC1` [lonafarnib], for which, in test [1], the “effect on key phenotypic hallmarks of progeria” value is given as “does not improve some of the key phenotypic hallmarks of progeria” and the “extension of average life expectancy” value is listed as “up to 33%”.
